Experimental data taken from patent publication US9872903B2, “Targeting thymidine kinase photosensitizer and pharmaceutical composition and use for cancer treatment thereof” (ZHEJIANG HISUN PHARMACEUTICAL CO., LTD., priority 2012, dated 2018).

What was measured:
tumor cells of PC3 line = test: in vivo therapeutic effect of PDT in tumor-bearing Scid mice; conditions: 665 nm; for curative ratio: photosensitizer 0.5 μmol/kg i.v., light 24 h later, 135 J/cm^2, 75 mW/cm^2, 60 days, 10 mice; for mice with no tumor relapse observed after 60 days: photosensitizer 0.5 μmol/kg, 135 J/cm^2, 75 mW/cm^2
Description: Procedure: subcutaneous injection of 3×10^5 tumor cells were performed to the mice, and the cells were allowed to grow so that the diameter can reach 4-5 mm. The hairs at the inoculation site were shaved one day before laser irradiation, and the photosensitizer at various concentrations was intravenously injected to the mice. The mice were not anesthetized, and were limited in a plastic circle 24 h after photosensitizer injection (such as Compound 1 or 3). Subsequently, light treatment was performed after the emission wavelength was tuned to the activation wavelength of the drug using an argon-pumped dye laser monochromes, wherein paclitaxel was additionally injected 8 h before exposure in the combination therapy group. The parameters involved in the therapy included a diameter of 1 cm^2, fluence rate of 75 mW/cm^2 and total light dosage of 135 J/cm^2.
If tumor growth was observed, two perpendicular values L and W (perpendicular to L) were used for the detection, and the volume of tumor can be calculated according to the equation V=(L×W^2)/2. If no evidence for regeneration can be observed 60 days after PDT therapy, the mice can be considered as cured. There were 10 mice in each group at each concentration.
The dosages of HPPH and HPPH-thymidine conjugate used in this experiment were both 0.5 μmol/kg. The single dosage of paclitaxel for additional injection 8 h before exposure was 35 mg/kg. The irradiation parameters included 665 nm, 135 J/cm^2, and 75 mW/cm^2. The curative ratio can be simply calculated based on the equation: number of mice without tumor regeneration×100%/total number of mice. For example, 60 days after administration of Compound 3, i.e., HPPH-thymidine conjugate of the present invention, there were 5 mice without tumor regeneration, and there were totally 10 mice in each group. Accordingly, the curative ratio is 5×100%/10, i.e., 50%.

PC3 cell line [1] = test: in vitro light-induced cytotoxicity test (PDT, MTT assay); assay type: cell-based, human; conditions: for survival rate: Pharmaceutical 3 0.003 μM
Description: In the present invention, the in vitro therapeutic effect of PDT was compared among HPPH, HPPH-thymidine conjugate and HPPH-thymidine conjugate in combination with chemotherapeutic agent paclitaxel in an in vitro light-induced cytotoxicity test.
Procedure: in this Example, a highly metastatic and […] prostatic cancer cell, PC3 cell line, was selected. The PC3 cells were cultured in RPMI 1640 medium supplemented with 10% fetal bovine serum, L-glutamine, penicillin, and streptomycin at 37° C., 5% CO2 and 95% air, and 100% humidity. Subsequently, the PC3 cells were inoculated in the complete medium in a 96-well plate at the density of 5×10^3 cell/well with 6 multiple wells arranged. After cultured at 37° C. overnight, the cells were treated by the photosensitizer or paclitaxel at gradient concentrations in darkness for 24 h. For the treatment using HPPH-thymidine conjugate in combination with paclitaxel, paclitaxel was additionally injected 8 h before exposure, and the concentrations of paclitaxel and the photosensitizer were the same as above.
After the pharmaceutical-containing medium was replaced by fresh medium, the cells were irradiated by light at 665 nm and with a dosage rate of 3.2 mW/cm^2 using an argon-pumped dye laser.
After treated by PDT or paclitaxel alone, the cells were cultured for 48 h at 37° C. in darkness. The phototoxicity was determined by MTT assay (by comparison of the survival rate between the test cells and the untreated cells). The dosage-response survival curve was also plotted. In the Figures, the value was the average of 3 independent experiments, and the error bar stood for standard deviation. In each treatment, the concentration of Compound 3, i.e., HPPH-thymidine conjugate, was 0.06 μM, and the concentration of Compound 1, i.e., HPPH, was 0.06 μM, and the concentration of paclitaxel was 2 nM.

[2] = tested on: PC-3 (human prostatic cancer) cell line; test: in vitro light cytotoxicity test of PDT at 675 nm or 703 nm (MTT); assay type: cell-based
Description: The in vitro therapeutic effect of PDT was compared among the following compounds in PC-3 (human prostatic cancer) cell line by in vitro light cytotoxicity test. The procedure was the same as that in Example 4. Briefly, PC3 cells were coated onto the wells of a 96-well plate and adhered for 6-24 h. Subsequently, the cells were treated by the PDT photosensitizer at various concentrations for 24 h, followed by irradiation at 675 nm (dose rate of 3.2 mW/cm^2) or 703 nm (dose rate of 3.2 mW/cm^2) using various high dosages. After 48 h, the cell growth was evaluated by colorimetry, wherein the insoluble formazan product generated in MTT method was dissolved and its concentration was detected at 570 nm through optical density.
The results of the treatment at 675 nm were shown in FIG. 4, wherein PLH-14 was Compound 5 in Example 2, and PLH-13 was Compound 6, i.e., thymidine conjugate of Compound 5, in Example 2. The concentration of both PLH-13 and PLH-14 was 0.1 μM. The results of the treatment at 703 nm were shown in FIG. 5, wherein 277-COOH was Compound 7 in Example 3, and PLH-12 was Compound 8, i.e., thymidine conjugate of Compound 7, in Example 3. The concentration of both 277-COOH and PLH-12 was 0.05 μM. As shown in FIG. 4 and FIG. 5, the in vitro therapeutic effect of PDT using the photosensitizer was enhanced by conjugation of Compound 5, […] Compound 7 with thymidine.

PC3 cell line [3] = test: morphology change by DAPI staining; assay type: cell-based, human; conditions: paclitaxel pretreatment

In the case of “2-((1′-n-hexyloxy)ethyl)-2-devinyl-pyropheophorbide-α [Compound 1, reference compound]”, the curative ratio (tumor cells of PC3 line) is reported as 30% and the “mice with no tumor relapse observed after 60 days” value (tumor cells of PC3 line) is reported as 3/10.
For `CCCCCCOC(C)c1c(C)c2cc3nc(c4c5[nH]c(cc6nc(cc1[nH]2)C(C)=C6CC)c(C)c5C(=O)C4)C(CCC(=O)OCC1OC(n2cc(C)c(=O)[nH]c2=O)CC1O)C3C` (centres unmarked) [Compound 3, 17^3-thymidylyl-3-((1′-n-hexyloxy)ethyl)-3-devinyl-pyropheophorbide], the “light dosage of IC50” value (PC3 cell line [1]; PDT with Compound 3 0.06 μM alone, 665 nm, 3.2 mW/cm^2, MTT after 48 h) was 0.13 J/cm^2, the survival rate (PC3 cell line [1]; light dosage 0.25 J/cm^2, before action of paclitaxel) was 100% and the survival rate (PC3 cell line [1]; light dosage 0.25 J/cm^2, under the action of paclitaxel (0.000704)) was 80%. The “in vitro therapeutic effect of PDT (cell survival vs light dosage, FIG. 3)” value (PC3 cell line [1]; photosensitizer 0.06 μM, paclitaxel 2 nM, 665 nm) was “higher than that using HPPH”, the curative ratio (tumor cells of PC3 line) was 50% and the “mice with no tumor relapse observed after 60 days” value (tumor cells of PC3 line) was 5/10.
`CCCCCCOC(C)c1c(C)c2[nH]c1cc1nc(cc3[nH]c4c(c5nc(c2-c2ccc(C(=O)OCC6OC(n7cc(C)c(=O)[nH]c7=O)CC6O)cc2)C(C)C5CCC(=O)OCC2OC(n5cc(C)c(=O)[nH]c5=O)CC2O)CC(=O)c4c3C)C(CC)=C1C` (centres unmarked) [Compound 6, 17^3-thymidylyl-20-(4-thymidylyloxycarbonyl)phenyl-3-((1′-n-hexyloxy)ethyl)-3-devinyl-pyro pheophorbide] was tested, and the “in vitro therapeutic effect of PDT (percentage of control growth, FIG. 4)” value ([2]; 675 nm, 3.2 mW/cm^2, 0.1 μM, compared with unconjugated PLH-14 (Compound 5)) was “enhanced”.
In the case of `CCCCOC(C)c1c(C)c2cc3nc(c4c5[nH]c(cc6nc(cc1[nH]2)C(C)=C6CC)c(C)c5C(=O)N(CCCC)C4=O)C(CCC(=O)OCC1OC(n2cc(C)c(=O)[nH]c2=O)CC1O)C3C` (centres unmarked) [Compound 8], the “in vitro therapeutic effect of PDT (relative growth rate, FIG. 5)” value ([2]; 703 nm, 3.2 mW/cm^2, 0.05 μM, compared with unconjugated 277-COOH (Compound 7)) is reported as “enhanced”.
`CC(=O)O[C@H]1C(=O)[C@@]2(C)[C@H]([C@H](OC(=O)c3ccccc3)[C@]3(O)C[C@H](OC(=O)[C@H](O)[C@@H](NC(=O)c4ccccc4)c4ccccc4)C(C)=C1C3(C)C)[C@]1(OC(C)=O)CO[C@@H]1C[C@@H]2O` [paclitaxel] was tested, and the “mechanism of cell death” value (PC3 cell line [3]) was “apoptosis mechanism”.
